Test results published in PMC7990224 (PLoS Pathogens, 2021).
Values joined by “and” are separate entries in the source; they are usually repeats but may differ in a detail not shown here. Equal values may be shown once.

What follows are compounds tested on SARS-CoV-2 GFP/ΔN trVLP.
Assay type: cell-based
Compound CCC(CC)COC(=O)[C@H](C)N[P@](=O)(OC[C@H]1O[C@@](C#N)(c2ccc3c(N)ncnn23)[C@H](O)[C@@H]1O)Oc1ccccc1 [Remdesivir] has an IC50 of 0.0625 µM.
With Cc1cccc(C)c1OCC(=O)N[C@@H](Cc1ccccc1)[C@@H](O)C[C@H](Cc1ccccc1)NC(=O)[C@H](C(C)C)N1CCCNC1=O [Lopinavir] the IC50 was 8.7 µM and 8.75 µM.
With GC376 the IC50 was 4.5 µM.
CC(C)c1nc(CN(C)C(=O)N[C@H](C(=O)N[C@@H](Cc2ccccc2)C[C@H](O)[C@H](Cc2ccccc2)NC(=O)OCc2cncs2)C(C)C)cs1 [Ritonavir] showed an IC50 of 7.54 µM.
